Experimental data from US20240316066A1, “COMPOSITION COMPRISING PIP4K2C INHIBITOR AS ACTIVE INGREDIENT FOR TREATMENT OF CANCER” (GWANGJU INSTITUTE OF SCIENCE AND TECHNOLOGY, priority 2021, published 2024).
pIC50: −log10 of the molar value. Entries after “also recorded” stand apart in the source; their conditions may differ. Where a name gives a salt, the structure may show the parent alone.

Experiments:
Format in all cases: cell-based
[1] = tested on: SJCRH30 human alveolar rhabdomyosarcoma cells; experiment: MTT assay, proliferation of rhabdomyosarcoma cells (SJCRH30); conditions: for pIC50: Homo sapiens, Rhabdomyosarcoma cell, SJCRH30, 24 hours, MTT, read-out: IC50 (half maximal inhibitory concentration); for cell proliferation (MTT): SJCRH30, 5 μM and 10 μM; for cell killing effect (MTT): SJCRH30, 10 μM
Experimental: (§1) SJCRH30 human alveolar rhabdomyosarcoma cells were purchased from ATCC. Cells were cultured in RPMI1640 supplemented with 10% fetal bovine serum (FBS), 1% penicillin, and streptomycin. CCD-18Co human colon fibroblasts were purchased from the Korea Cell Line Bank. Cells were cultured in DMEM supplemented with 10% fetal bovine serum (FBS), 1% penicillin, and streptomycin. All cells were cultured in an incubator at 37° C. under 5% CO2.
(§2) Cell proliferation was evaluated through MTT analysis. SJCRH30 and CCD-18Co cells were seeded in triplicate in 96-well plates at a density of 2×10^4 cells per well. After 24 hours, each FDA-approved drug was diluted in fetal bovine serum (FBS)-free medium and the cells were treated therewith. After 24 hours of incubation, the medium was replaced with MTT solution (0.5 mg/mL) and the plates were incubated at 37° C. under 5% CO2. After 60 minutes of incubation, the supernatants were removed and 50 μL of DMSO was added to each well. The optical density in each well was measured at 570 nm using a microplate reader (VersaMax, Molecular Devices, USA).
MTT assay was performed to evaluate the effects of FDA-approved drugs on the proliferation of rhabdomyosarcoma cells (SJCRH30). Rhabdomyosarcoma cells were treated with each of 18 drugs at concentrations of 5 μM and 10 μM, respectively, and observed after 24 hours.
(§3) Rhabdomyosarcoma cells (SJCRH30) and colon fibroblasts (CCD-18Co) were treated with ivacaftor at concentrations of 0.625 μM, 1.25 μM, 2.5 μM, 5 μM, and 10 µM and compared.
MTT assay was performed to compare IC50 (half maximal inhibitory concentration) values of pazopanib HCl, which is used for soft tissue sarcoma patients, and ivacaftor, against rhabdomyosarcoma cells (SJCRH30). Rhabdomyosarcoma cells were treated with each of pazopanib HCl and ivacaftor at concentrations of 0.625 μM, 1.25 μM, 2.5 μM, 5 μM, 10 µM, 20 μM, 40 μM, and 60 µM for 24 hours and then observed.

[2] = tested on: pancreatic cancer cells (PANC-1); experiment: MTT assay, pancreatic cancer cells (PANC-1); conditions: PANC-1, 0.625 μM to 10 µM, 24 hours
Experimental: as §2
(§4) MTT assay was performed by treating colorectal cancer cells (HCT-116), pancreatic cancer cells (PANC-1), lung cancer cells (A549), and breast cancer cells (MDA-MB-231) with each of ivacaftor and adapalene and treating colorectal cancer cells (HCT-116), pancreatic cancer cells (PANC-1), and lung cancer cells (A549) with dutasteride. The cells were treated with each of the three drugs at concentrations of 0.625 μM, 1.25 μM, 2.5 μM, 5 μM, and 10 µM for 24 hours and then observed.

lung cancer cells (A549) = experiment: MTT assay, lung cancer cells (A549); conditions: A549, 0.625 μM to 10 µM, 24 hours
Experimental: as §2, §4

[3] = tested on: CCD-18Co human colon fibroblasts; experiment: MTT assay, toxicity to normal cells (CCD-18Co); conditions: 0.625 μM to 10 µM, all concentrations, 24 hours
Experimental: as §1, §2, §3

[4] = tested on: breast cancer cells (MDA-MB-231); experiment: MTT assay, breast cancer cells (MDA-MB-231); conditions: MDA-MB-231, 0.625 μM to 10 µM, 24 hours
Experimental: as §2, §4

[5] = tested on: colorectal cancer cells (HCT-116); experiment: MTT assay, colorectal cancer cells (HCT-116); conditions: HCT-116, 0.625 μM to 10 µM, 24 hours
Experimental: as §2, §4

Row | Structure (SMILES) | pIC50 [1] | cell proliferation (MTT) ([1]; 24 hours) | cell killing effect (MTT) ([1]; 24 hours) | cell number (MTT) ([1]; SJCRH30, at 1.25 μM, 2.5 μM, 5 μM and 10 μM, 24 hours) | cell proliferation (MTT) [2] | cell proliferation (MTT) (lung cancer cells (A549)) | cell number (MTT), toxicity to normal cells [3] | cell proliferation (MTT) [4] | cell proliferation (MTT) [5]
1 | CC(C)(C)c1cc(C(C)(C)C)c(NC(=O)c2c[nH]c3ccccc3c2=O)cc1O [ivacaftor] | 5.29 | significant decrease in cell proliferation; also recorded: highest effect on cell proliferation reduction | significant cell killing effect | significant decrease in the cell number | significant decrease in cell proliferation | significant decrease in cell proliferation | no significant decrease in the cell number | significant decrease in cell proliferation | 
2 | Cc1ccc(Nc2nccc(N(C)c3ccc4c(C)n(C)nc4c3)n2)cc1S(N)(=O)=O [pazopanib HCl] | 4.39 |  |  |  |  |  |  |  | 
3 | COc1ccc(-c2ccc3cc(C(=O)O)ccc3c2)cc1C12CC3CC(CC(C3)C1)C2 [adapalene] |  | significant decrease in cell proliferation | significant cell killing effect |  | significant decrease in cell proliferation | significant decrease in cell proliferation |  | significant decrease in cell proliferation | significant decrease in cell proliferation
4 | C[C@@H](O[C@H]1OCCN(Cc2n[nH]c(=O)[nH]2)[C@H]1c1ccc(F)cc1)c1cc(C(F)(F)F)cc(C(F)(F)F)c1 [aprepitant] |  | significant decrease in cell proliferation | significant cell killing effect |  |  |  |  |  | 
5 | C[C@]12C=CC(=O)N[C@@H]1CC[C@@H]1[C@@H]2CC[C@]2(C)[C@@H](C(=O)Nc3cc(C(F)(F)F)ccc3C(F)(F)F)CC[C@@H]12 [dutasteride] |  | significant decrease in cell proliferation | significant cell killing effect |  | decrease in cell proliferation | decrease in cell proliferation |  |  | decrease in cell proliferation
